Results on two compounds are retold here after patent US6572751B1, “Method and apparatus for continuous flow isoelectric focusing for purifying biological substances” (priority 1997, dated 2003).

Assay [1] concerns E. coli and two Streptococcus Spp. To be noted: disk tests.
Assay [2] is described as follows: Lysozyme activity of fractions. The class given is biochemical.
Experimental: For this Exarnple, egg white was collected from 2,000 eggs (about 50 L) and diluted in ice-cold distilled water, up to 150 L. All manipulations were done at 4° C. The solution was filtered and introduced into a 4 L apparatus according to the present invention, and having three working outflow ports (plus two electrode outflows). The contifocuser was initially filled with distilled water. The flow rate was adjusted at 75 ml/min, a DC 1,000 Volts was established, and the initial power of the system was 1.5 W. After adding the crude egg white suspension, the power raised to 10.5 W. The contifocusing lasted 34 hrs. […] This suspension was gradually introduced into a 1 L contifocuser with three working and two electrode outflow ports. The flow rate with distilled water was adjusted at 10 ml/min, 1,000 V/DC. […] The contifocusing lasted 3 days. The outflow nearest to the cathode, at pH 10.5, was collected. […] This fraction of 12 L was thereafter introduced in four fractions onto 200×1500 mm chromatographic columns packed by a molecular sieving gel, Spheron P-200, and 25 ml fractions were collected.

As usually defined, the inhibition is the change of the read-out against control, counted positive when it falls. Low values mean a weak effect, high ones a strong effect.

In the case of `CN(C)[C@@H]1C(=O)C(C(N)=O)=C(O)[C@@]2(O)C(=O)C3=C(O)c4c(O)cccc4[C@@](C)(O)[C@H]3C[C@@H]12` [original material, Tetracyclin], the inhibition in assay [1] worked out at 85%.

On to “lysozyme: enzyme isolated from egg white by contifocusing”, for which the protein-splitting activity in assay [2] (first peak after Spheron P-200 gel chromatography) is listed as 20,000 U/g. Moreover, in assay [2] (outflow at pH 10.5 after first contifocusing run), the “lysozyme concentration (activity)” value is 200 U/ml.
